Results reported in ChEMBL document CHEMBL1949654, “Discovery of a Potent Pyrazolopyridine Series of γ-Secretase Modulators” (ACS Med Chem Lett, 2011).
The source made the active and inactive calls. The calls are words filed in the database; no cut-off is given here.

What was measured:
[1] = Selectivity ratio of IC50 for gamma secretase-mediated amyloid beta total production to IC50 for gamma secretase-mediated amyloid beta (1 to 42) production
Canis lupus familiaris = species on record: Canis lupus familiaris; test: Inhibition of dog gamma-secretase assessed as reduction in reduction in Hes-1 expression up to 20 uM
P-glycoprotein [2] = test: Drug transport assessed as P-glycoprotein-mediated efflux ratio of compound transport from basolateral to apical side over apical to basolateral side; format: ADME; settings: not told
P-glycoprotein [3] = test: Drug transport assessed as P-glycoprotein-mediated basolateral to apical permeability; format: ADME; settings: not told; read-out: permeability
Rattus norvegicus [4] = test: Antialzheimer activity in CD rat assessed as reduction in amyloid beta (1 to 40) CSF level at 30 mg/kg, po measured after 3 hrs; format: functional, organism-based; design: dose 30 mg/kg
Mus musculus = species on record: Mus musculus; test: Inhibition of mouse gamma-secretase assessed as reduction in reduction in Hes-1 expression up to 20 uM
[5] = Inhibition of gamma secretase-mediated amyloid beta (1 to 42) production expressed in HEK293 cells overexpressing APP Swedish mutant after 5 hrs by immunoassay; format: cell-based
P-glycoprotein [6] = test: Drug transport assessed as P-glycoprotein-mediated apical to basolateral permeability; format: ADME; settings: not told; read-out: permeability
[7] = Drug uptake in CD rat plasma at 30 mg/kg, po measured after 3 hrs; format: ADME, organism-based; design: dose 30 mg/kg, route oral
HEK293 = test: Inhibition of gamma-secretase expressed in HEK293 cells assessed as reduction in Notch cleavage up to 20 uM; format: cell-based
Rattus norvegicus [8] = test: Antialzheimer activity in CD rat assessed as reduction in amyloid beta total CSF level at 30 mg/kg, po measured after 3 hrs; format: functional, organism-based; design: dose 30 mg/kg
[9] = Drug uptake in CD rat brain at 30 mg/kg, po measured after 3 hrs; format: ADME, organism-based; design: dose 30 mg/kg, route oral; settings: read-out: Drug uptake
Rattus norvegicus [10] = test: Antialzheimer activity in CD rat assessed as reduction in amyloid beta (1 to 42) CSF level at 30 mg/kg, po measured after 3 hrs; format: functional

Row | Ratio IC50 [1] | inhibition (Canis lupus familiaris) | efflux ratio (P-glycoprotein [2]) | Papp B→A (P-glycoprotein [3]) | inhibition (Mus musculus) | IC50 [5] | Papp A→B (P-glycoprotein [6]) | concentration at 3 h [7] | concentration at 3 h [9] | Compound | inhibition (Rattus norvegicus [4]) | inhibition (HEK293) | inhibition (Rattus norvegicus [8]) | Activity (Rattus norvegicus [10])
1 | 186 | inactive |  |  | inactive | 107 nM |  | 5020 nM | 1220 nM | COc1cc(-c2nnc3n([C@@H](C)c4cc(F)c(F)c(F)c4)cc(Cl)cc2-3)ccc1-n1cnc(C)c1 | inactive | inactive | inactive | 45%
2 | 161 | inactive | 8.5 | 41.2 ×10⁻⁶ cm/s | inactive | 85 nM | 4.8 ×10⁻⁶ cm/s |  |  | COc1cc(-c2nnc3n([C@@H](C)c4ccc(F)cc4)cc(C)cc2-3)ccc1-n1cnc(C)c1 | inactive | inactive | inactive | inactive
3 | 151 | inactive |  |  | inactive | 71 nM |  | 2520 nM | 740 nM | COc1cc(-c2nnc3n([C@@H](C)c4cc(F)ccc4F)cc(Cl)cc2-3)ccc1-n1cnc(C)c1 | inactive | inactive | inactive | 24%
4 | 288 | inactive |  |  | inactive | 70 nM |  | 2740 nM | 920 nM | COc1cc(-c2nnc3n([C@@H](C)c4ccc(F)cc4)cc(Cl)cc2-3)ccc1-n1cnc(C)c1 | inactive | inactive | inactive | 32%
5 | 301 | inactive |  |  | inactive | 66 nM |  | 6510 nM | 880 nM | COc1cc(-c2nnc3n([C@@H](C)c4ccc(F)c(F)c4)cc(Cl)cc2-3)ccc1-n1cnc(C)c1 | inactive | inactive | inactive | 27%
6 | 6 | inactive |  |  | inactive | 38 nM |  |  |  | COc1cc(-c2nnc3n([C@@H](C)c4cc(F)cc(F)c4)cc(Cl)cc2-3)ccc1-n1cnc(C)c1 | inactive | inactive | inactive | 
7 | 119 | inactive |  |  | inactive | 168 nM |  | 2150 nM | 100 nM | COc1cc(-c2nnc3n([C@@H](CO)c4ccc(F)cc4)cc(Cl)cc2-3)ccc1-n1cnc(C)c1 | inactive | inactive | inactive | inactive
8 | 463 | inactive |  |  | inactive | 43 nM |  | 7230 nM | 1610 nM | CC[C@@H](c1cc(F)c(F)c(F)c1)n1cc(Cl)cc2c(-c3ccc(-n4cnc(C)c4)c(OC)c3)nnc1-2 | inactive | inactive | inactive | 30%
9 | 32 | inactive |  |  | inactive | 634 nM |  |  |  | COc1cc(-c2nnc3n([C@@H](C)c4ccc(F)cc4)cc(CF)cc2-3)ccc1-n1cnc(C)c1 | inactive | inactive | inactive | 

Further lines, the compound ahead of its results:

Row | Compound | Ratio IC50 [1] | inhibition (Canis lupus familiaris) | efflux ratio (P-glycoprotein [2]) | Papp B→A (P-glycoprotein [3]) | inhibition (Mus musculus) | IC50 [5] | Papp A→B (P-glycoprotein [6]) | concentration at 3 h [7] | concentration at 3 h [9] | inhibition (Rattus norvegicus [4]) | inhibition (HEK293) | inhibition (Rattus norvegicus [8]) | Activity (Rattus norvegicus [10])
10 | COc1cc(-c2nnc3n([C@@H](C)c4cc(F)cc(F)c4)cccc2-3)ccc1-n1cnc(C)c1 | 94 | inactive | 3.85 | 32.4 ×10⁻⁶ cm/s | inactive | 117 nM | 8.5 ×10⁻⁶ cm/s | 1960 nM | 140 nM | inactive | inactive | inactive | inactive
11 | COc1cc(-c2nnc3n(C(C)c4ccc(F)cc4)cccc2-3)ccc1-n1cnc(C)c1 (racemic) | 87 | inactive |  |  | inactive | 231 nM |  |  |  | inactive | inactive | inactive | 
12 | COc1cc(-c2nnc3n([C@@H](C)c4ccc(F)cc4)cc(CO)cc2-3)ccc1-n1cnc(C)c1 | 248 | inactive |  |  | inactive | 81 nM |  |  |  | inactive | inactive | inactive | 
13 | C=C(c1ccc(F)cc1)n1cc(Cl)cc2c(-c3ccc(-n4cnc(C)c4)c(OC)c3)nnc1-2 | 42 | inactive |  |  | inactive | 481 nM |  |  |  | inactive | inactive | inactive | 
14 | COc1cc(-c2nnc3n([C@@H](C)c4ccc(F)cc4)cccc2-3)ccc1-n1cnc(C)c1 | 205 | inactive | 33.8 | 31.4 ×10⁻⁶ cm/s | inactive | 97 nM | 0.9 ×10⁻⁶ cm/s | 2880 nM | 170 nM | inactive | inactive | inactive | inactive
15 | COc1cc(-c2nnc3n([C@@H](C)c4ccc(F)cc4)cc(C(C)(F)F)cc2-3)ccc1-n1cnc(C)c1 | 66 | inactive |  |  | inactive | 143 nM |  | 30 nM |  | inactive | inactive | inactive | inactive
16 | COc1ccc(Cn2cccc3c(-c4ccc(-n5cnc(C)c5)c(OC)c4)nnc2-3)cc1 | 119 | inactive |  |  | inactive | 168 nM |  |  |  | inactive | inactive | inactive | 
17 | CC[C@@H](c1ccc(F)cc1)n1cccc2c(-c3ccc(-n4cnc(C)c4)c(OC)c3)nnc1-2 | 42 | inactive |  |  | inactive | 140 nM |  |  |  | inactive | inactive | inactive | 
18 | COc1cc(-c2nnc3n([C@@H](C)c4ccc(F)cc4)cc(C(F)F)cc2-3)ccc1-n1cnc(C)c1 | 52 | inactive |  |  | inactive | 123 nM |  |  |  | inactive | inactive | inactive | inactive
19 | COc1cc(-c2nnc3n([C@@H](C)c4ccc(F)cc4)cc(C#N)cc2-3)ccc1-n1cnc(C)c1 | 60 | inactive |  |  | inactive | 172 nM |  |  |  | inactive | inactive | inactive | 
20 | COc1ccc(COCc2cc3c(-c4ccc(-n5cnc(C)c5)c(OC)c4)nnc-3n([C@@H](C)c3ccc(F)cc3)c2)cc1 | 110 | inactive |  |  | inactive | 182 nM |  |  |  | inactive | inactive | inactive | 
21 | COc1cc(-c2nnc3n([C@H](C)c4ccc(F)cc4)cccc2-3)ccc1-n1cnc(C)c1 | 60 | inactive |  |  | inactive | 332 nM |  |  |  | inactive | inactive | inactive | 
22 | COc1cc(-c2nnc3n(C(CCS(C)(=O)=O)c4ccc(F)cc4)cc(Cl)cc2-3)ccc1-n1cnc(C)c1 (stereo unspecified) | 63 | inactive |  |  | inactive | 316 nM |  |  |  | inactive | inactive | inactive | 
